Literature values in patent US20230159896A1, “MULTI-LINEAGE CARDIOVASCULAR MICROFLUIDIC ORGAN-CHIP” (CEDARS-SINAI MEDICAL CENTER, priority 2020, published 2023).
Entries after “also recorded” stand apart in the source; their conditions may differ.

Experiments:
[1] = clinical, at common dose; for Cmax: read-out: Molar Cmax
[2] = for Cardiovascular side effects: patients
[3] = system: patient-specific hiPSC-CMs
[4] = system: zebrafish; settings: zebrafish model
[5] = system: PI3K/Akt; settings: hiPSC-CMs, previous study

Compound: CNC(=O)c1ccccc1Sc1ccc2c(/C=C/c3ccccn3)n[nH]c2c1 [axitinib]
- Peak plasma concentration (Cmax) [1]: 12.6 ng/mL
- Cmax [1]: 900 nM

Compound: COc1cc2ncnc(Nc3ccc(F)c(Cl)c3)c2cc1OCCCN1CCOCC1 [gefitinib]
- Cardiovascular side effects [2]: typically does not exhibit cardiotoxic side effects

Compound: COc1cc2nccc(Oc3ccc(NC(=O)NC4CC4)c(Cl)c3)c2cc1C(N)=O [lenvatinib]
- Peak plasma concentration (Cmax) [1]: 660 ng/mL
- Cmax [1]: 1540 nM

Compound: Cc1ccc(Nc2nccc(N(C)c3ccc4c(C)n(C)nc4c3)n2)cc1S(N)(=O)=O [pazopanib]
- Peak plasma concentration (Cmax) [1]: 1960 ng/mL
- Cmax [1]: 3650 nM
- Cardiovascular side effects [2]: may cause heart failure or vascular toxicity

Compound: Cc1ccc(C(=O)Nc2ccc(CN3CCN(C)CC3)c(C(F)(F)F)c2)cc1C#Cc1cnc2cccnn12 [ponatinib]
- Cmax [1]: 140 nM
- Cytotoxicity on hiPSC-CMs relative to other TKIs ([3]; previous hiPSC-CM study): most cytotoxic of all TKIs studied
- FDA black box warning ([2]; human, in vivo): arterial occlusions and venous thromboembolisms as well as hepatotoxicity
- Cardiovascular side effects [2]: severe vascular toxicity

Compound: CNC(=O)c1cc(Oc2ccc(NC(=O)Nc3ccc(Cl)c(C(F)(F)F)c3)c(F)c2)ccn1 [regorafenib]
- Peak plasma concentration (Cmax) [1]: 2500 ng/mL
- Cmax [1]: 8080 nM

Compound: CNC(=O)c1cc(Oc2ccc(NC(=O)Nc3ccc(Cl)c(C(F)(F)F)c3)cc2)ccn1 [sorafenib]
- Survival [4]: decrease survival
- Cardiovascular side effects [2]: cause hypertension, ischemia, and cardiac side-effects; also recorded: may cause heart failure or vascular toxicity

Compound: CCN(CC)CCNC(=O)c1c(C)[nH]c(/C=C2\C(=O)Nc3ccc(F)cc32)c1C [sunitinib]
- Peak plasma concentration (Cmax) [1]: 81.9 ng/mL
- Cmax [1]: 1200 nM
- Survival [4]: decrease survival
- Cardiovascular side effects [2]: cause hypertension, ischemia, and cardiac side-effects; also recorded: may cause heart failure or vascular toxicity

Compound: COc1cc2c(Nc3ccc(Br)cc3F)ncnc2cc1OCC1CCN(C)CC1 [vandetanib]
- Peak plasma concentration (Cmax) [1]: 960 ng/mL
- hiPSC-CM contractile function ([3]; clinically-relevant concentrations, TKIs with FDA black-box warnings): contractile dysfunction

Compound: insulin: Akt pathway activator
- PI3K/Akt phosphorylation [5]: significantly enhanced
- Effect of co-treatment on TKI-induced CM toxicity ([3]; co-treatment with Akt pathway activators): reversed TKI-induced CM toxicity
